From publication PMC3879368, “Characterisation of a Multi-ligand Binding Chemoreceptor CcmL (Tlp3) of Campylobacter jejuni” (PLoS Pathogens, 2014) come the findings set out here.

One assay has as its system C. jejuni 11168-O. The format is cell-based, Campylobacter jejuni. The settings on record: for Chemotactic response: nutrient depleted chemotaxis assay, 11168-O vs Δtlp3.
For assay [1], the system named is recombinant Tlp3 periplasmic sensory domain peptide. As to the kind of experiment: 96-well plate binding assay. More on the design: species or system Campylobacter jejuni; key: Y: positive binding significantly above background; N: binding not significantly above background. The note with it: non-covalent presentation. The method, then:
(§1) The array assay presents the compounds covalently bound to an epoxide group resulting in a high probability of a single molecular orientation. The plate assay relies on non-covalent charge and hydrophobic/hydrophilic interactions for presentation of the molecules offering a different presentation to the array.
(§2) Amino acid and small molecule arrays and plate based binding assays were performed as previously described.. […] SPR experiments were performed using a Biacore T100 biosensor system (GE- healthcare) at 25°C in 1× PBS pH 7.2 at a flow rate of 30 µl/min. […] Amino acids were prepared in 1 × PBS pH 7.2 and serially diluted from 0.0125 to 0.2 mM. The amino acids were loaded to the sensor chip using single-cycle kinetics, i.e. after the injection of five amino acid dilutions the chip was regenerated with EDTA. Subsequently, the chip was re-loaded with Ni^2+ and His-Tlp3 before the injection of the next amino acid to be tested. A 10 min dissociation time was allowed after the addition of each analyte. SPR signals were analyzed using the Biacore Evaluation software to determine KD.

Assay [2] relates to recombinant Cj1564 (Tlp3) periplasmic sensory domain peptide. The assay is described as follows: 1H STD-NMR analysis, single ligand and competition. The format is binding, Campylobacter jejuni. The note with it: for STD-NMR binding to Tlp3 (in words): ligand alone with Tlp3; for Binding preference in competition STD experiments: two ligands together with Tlp3. On the procedure:
Recombinant Tlp3 (1 mg/mL, 100 µL) dissolved in D2O (99.99% D Cambridge Isotopes) containing 50 mM NaCl and 50 mM KH2PO4 and added to various ligands (1 mg/mL, 150 µL ∼150 mole equivalents) also dissolved in D2O (99.99% D Cambridge Isotopes) containing 50 mM NaCl and 50 mM KH2PO4 to give a total volume of 250 µL in a 3 mm NMR tube for NMR analysis. Control samples were prepared in an identical manner without Tlp3 added. All NMR experiments were performed on a Bruker Avance 600 MHz spectrometer, equipped with a 5-mm TXI probe with triple axis gradients at 283 K without sample spinning. ^1H NMR spectra were acquired with 32 scans, a 2 s relaxation delay over a spectral width of 6000 Hz. Solvent suppression of the residual HDO peak was achieved by continuous low-power presaturation pulse during the relaxation delay. […] A 100 µs delay between each soft pulse was applied, resulting in a total saturation time of 2 s and 2 K scans.
Data were obtained with an interspersed acquisition of pseudo-two-dimensional on-resonance and off-resonance spectra in order to minimize the effects of temperature and magnet instability. On- and off-resonance spectra were processed separately, and the final STD-NMR spectrum was obtained by subtracting the individual on- and off-resonance spectra, resulting in less subtraction artefacts. Relative STD effects were calculated according to the equation ASTD = (I0−Isat)/I0 = ISTD/I0 by comparing the intensity of the signals in the STD-NMR spectrum (ISTD) with signal intensities of a reference spectrum (I0). The STD signal with the highest intensity was set to 100% and other STD signals were calculated accordingly. A spin lock field of 10 ms was applied to remove unwanted background protein signals. […] Control STD-NMR experiments were performed using an identical experimental setup and the same ligand concentration but in the absence of the protein.

The test system of assay [3] is recombinant Tlp3 periplasmic sensory domain peptide. As to the kind of experiment: Amino acid and small molecule array binding assay. The note with it: compounds covalently bound to an epoxide group. More on the design: species or system Campylobacter jejuni; key: Y: positive binding significantly above background; N: binding not significantly above background. The method, then: as §1, §2

The subject of another assay is C. jejuni 11168-O Δtlp3. The format is cell-based, Campylobacter jejuni. The settings on record: for Increase in bacterial numbers around ligand plug, Δtlp3 compared to wild type: repellents; for Viable counts of C. jejuni associated with ligand plug: Δtlp3, plug with 2 mM ligand, 37°C, 4 h; for Reduction in bacterial numbers migrating towards ligand, Δtlp3 compared to wild type: attractants.

Another assay has as its target His-Tlp3 (Campylobacter jejuni, UniProt Q0P864). The assay is described as follows: biochemical. The format is binding. The note with it: for SPR interaction with Tlp3 (in words): two-fold serial dilution between 12.5 and 200 µM. The method, then:
as §2
All interactions present were tested with a two-fold serial dilution between 12.5 and 200 µM. (TIF) Click here for additional data file.

[4] abbreviates: wild type 11168-O, plug with 2 mM ligand, 37°C, 4 h.
[5] abbreviates: Binding Affinity (KD), SPR, 25°C, 1× PBS pH 7.2.

Broadly, the Kd is the equilibrium constant for the complex coming apart.

“And” between values parts separate entries of the source, which are not always exact repeats. Identical values can stand only once. “Also recorded” adds a separate entry of the source. Like-named read-outs stand apart in the source and are kept apart here. Bounds are passed on as bounds.
For Chemotactic response in this document: key: +: positive response (chemoattractant); −: negative response (chemorepellent).

Sequence of His-Tlp3 (Q0P864 entry or part of it): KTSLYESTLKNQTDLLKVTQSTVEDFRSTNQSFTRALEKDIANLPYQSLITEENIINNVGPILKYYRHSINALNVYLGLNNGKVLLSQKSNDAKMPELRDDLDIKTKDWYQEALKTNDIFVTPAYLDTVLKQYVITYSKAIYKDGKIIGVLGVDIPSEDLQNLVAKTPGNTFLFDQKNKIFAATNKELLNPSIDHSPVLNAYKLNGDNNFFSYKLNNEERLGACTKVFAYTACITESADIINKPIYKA

On to `N=C(N)NCCC[C@H](N)C(=O)O` [Arginine], for which the Chemotactic response entry in the assay on C. jejuni 11168-O is given as “−”. The results for the “Viable counts of C. jejuni associated with ligand plug” value (from here on “Viable counts of C. jejuni associated”) in the assay with C. jejuni 11168-O (setting [4]) and in the assay on C. jejuni 11168-O Δtlp3 were 1.3 × 10^6 cfu/ml and 6.8 × 10^7 cfu/ml, respectively. Besides, the Plate assay entry in assay [1] was “Y”. In addition, in assay [2] (283 K), the “STD-NMR binding to Tlp3 (in words)” value is reported as “Binding was observed”. Further, the “Binding preference in competition STD experiments” value (“Binding preference” below) in assay [2] is on record as “preferential binding of arginine over lysine”. In addition, in assay [3], the Array binding result is reported as “N”. Besides, the “Increase in bacterial numbers around ligand plug, Δtlp3 compared to wild type” value (“Increase … Δtlp3 compared to wild type” below) in the assay with C. jejuni 11168-O Δtlp3 is listed as 1 log.
As for `N[C@@H](CC(=O)O)C(=O)O` [Aspartate], in the assay on C. jejuni 11168-O, the Chemotactic response result was “+”. In addition, the “Viable counts of C. jejuni associated” value in the assay with C. jejuni 11168-O (setting [4]) is 7.8 × 10^6 cfu/ml; in the assay on C. jejuni 11168-O Δtlp3, 3.7 × 10^3 cfu/ml. In addition, the Plate assay entry in assay [1] was “Y”. Further, in assay [3], the Array binding entry was “N”. In the assay on C. jejuni 11168-O Δtlp3, the “Reduction in bacterial numbers migrating towards ligand, Δtlp3 compared to wild type” value (“Reduction … Δtlp3 compared to wild type” below) is on record as 3 log.
Take `O=C(O)/C=C/C(=O)O` [Fumaric Acid]: the Chemotactic response entry in the assay on C. jejuni 11168-O is “+”. The “Viable counts of C. jejuni associated” value with C. jejuni 11168-O (setting [4]) was 4.14 × 10^6 cfu/ml. For the same compound, the Plate assay result in assay [1] is recorded as “Y”. The Kd on His-Tlp3 is above 10000 µM. Further, in the assay with C. jejuni 11168-O Δtlp3, the “Reduction … Δtlp3 compared to wild type” value worked out at 4 log and the “Viable counts of C. jejuni associated” value is given as 9 × 10^2 cfu/ml.
Take `N[C@H]1C(O)O[C@H](CO)[C@@H](O)[C@@H]1O` (stereo partly shown) [Glucosamine]: the Chemotactic response result in the assay with C. jejuni 11168-O is given as “−”. Further, the “Viable counts of C. jejuni associated” value is 1.68 × 10^3 cfu/ml with C. jejuni 11168-O (setting [4]) and 7.8 × 10^6 cfu/ml in the assay with C. jejuni 11168-O Δtlp3. In addition, in assay [1], the Plate assay entry is “Y”. The “STD-NMR binding to Tlp3 (in words)” value in assay [2] (283 K) was “No signals were detected”. Binding on His-Tlp3 (setting [5]) was put at a Kd of 7.77 µM. Besides, at His-Tlp3 (SPR), the “Dissociation rate from Tlp3 (in words)” value is listed as “slow disassociation rates”. For the same compound, the “Increase … Δtlp3 compared to wild type” value in the assay with C. jejuni 11168-O Δtlp3 is on record as 3 log.
`CC[C@H](C)[C@H](N)C(=O)O` [Isoleucine]: the Chemotactic response result with C. jejuni 11168-O is given as “+”. Also, the “Viable counts of C. jejuni associated” value with C. jejuni 11168-O (setting [4]) is reported as 6 × 10^6 cfu/ml. The Plate assay result in assay [1] is “Y”. Besides, the “STD-NMR binding to Tlp3 (in words)” value in assay [2] (283 K) was “Binding was observed”. Moreover, the “Binding preference” value in assay [2] was “binds preferentially over arginine; also recorded: binds preferentially over lysine”. For the same compound, the Array binding result in assay [3] is recorded as “Y”. For the same compound, in the assay on C. jejuni 11168-O Δtlp3, the “Reduction … Δtlp3 compared to wild type” value is on record as 4 log and the “Viable counts of C. jejuni associated” value was 3.6 × 10^2 cfu/ml.
Consider `NCCCC[C@H](N)C(=O)O` [Lysine], for which the Chemotactic response entry in the assay on C. jejuni 11168-O was “−”. In the assay on C. jejuni 11168-O (setting [4]), the “Viable counts of C. jejuni associated” value was 2.2 × 10^3 cfu/ml. Moreover, the Plate assay result in assay [1] is listed as “Y”. In addition, the “STD-NMR binding to Tlp3 (in words)” value in assay [2] (283 K) was “Binding was observed”. The Kd on His-Tlp3 (setting [5]) is ~2.8 µM and 2.8 µM. For the same compound, the “Binding affinity of lysine relative to arginine, fold stronger” value on His-Tlp3 (ratio of SPR KD values) is recorded as around 14 fold. Besides, the Array binding entry in assay [3] was “N”. Besides, in the assay on C. jejuni 11168-O Δtlp3, the “Increase … Δtlp3 compared to wild type” value came to 2 log and the “Viable counts of C. jejuni associated” value was 2.4 × 10^5 cfu/ml.
For the compound `O=C(O)CC(O)C(=O)O` (stereo not shown) [Malic Acid], the Chemotactic response entry in the assay with C. jejuni 11168-O is given as “+”. For the same compound, the “Viable counts of C. jejuni associated” value with C. jejuni 11168-O (setting [4]) was 9 × 10^5 cfu/ml. In addition, the Plate assay entry in assay [1] is given as “Y”. Also, the “STD-NMR binding to Tlp3 (in words)” value in assay [2] (283 K) is “No signals were detected”. The “Dissociation rate from Tlp3 (in words)” value at His-Tlp3 (SPR) is listed as “slow disassociation rates”. Further, in the assay on C. jejuni 11168-O Δtlp3, the “Reduction … Δtlp3 compared to wild type” value is 2 log and the “Viable counts of C. jejuni associated” value was 1.13 × 10^3 cfu/ml.
Regarding `c1ncc2nc[nH]c2n1` [Purine], in the assay on C. jejuni 11168-O, the Chemotactic response entry is listed as “+”. In addition, in the assay on C. jejuni 11168-O (setting [4]), the “Viable counts of C. jejuni associated” value is given as 1.4 × 10^6 cfu/ml. In assay [1], the Plate assay entry was “Y”. Further, in assay [2] (283 K), the “STD-NMR binding to Tlp3 (in words)” value is listed as “Binding was observed”. Besides, the “STD effect of H2 protons, fold lesser than H6” value in assay [2] (pyrimidine ring protons, 283 K) is around 5 fold. Further, the “Binding preference” value in assay [2] was “binds preferentially over lysine; also recorded: binds preferentially over arginine”. The dissociation constant Kd at His-Tlp3 (setting [5]) turned out to be 38.3 µM. In addition, in the assay with C. jejuni 11168-O Δtlp3, the “Reduction … Δtlp3 compared to wild type” value was 1 log and the “Viable counts of C. jejuni associated” value is 1.08 × 10^5 cfu/ml.
In the case of `O=C(O)CCC(=O)O` [Succinic Acid], in the assay on C. jejuni 11168-O, the “Viable counts of C. jejuni associated” value was 1.5 × 10^6 cfu/ml and the Chemotactic response result is given as “−”. The Plate assay entry in assay [1] is “Y”. This compound also registered a Kd on His-Tlp3 (setting [5]) of 33.2 µM. In the assay with C. jejuni 11168-O Δtlp3, the “Increase … Δtlp3 compared to wild type” value was found to be 1 log and the “Viable counts of C. jejuni associated” value was 2 × 10^7 cfu/ml.
On to `Cc1ncc(C[n+]2csc(CCO)c2C)c(N)n1` [Thiamine], for which, in the assay with C. jejuni 11168-O, the “Viable counts of C. jejuni associated” value is given as 4 × 10^5 cfu/ml and the Chemotactic response entry is on record as “−”. Also, the Plate assay entry in assay [1] is “Y”. Further, at His-Tlp3 (setting [5]), the dissociation constant (Kd) is below 50 µM. In the assay with C. jejuni 11168-O Δtlp3, the “Increase … Δtlp3 compared to wild type” value is given as 1 log and the “Viable counts of C. jejuni associated” value was 9 × 10^6 cfu/ml.
For the compound `C[C@H](N)C(=O)O` [alanine], at His-Tlp3, the “SPR interaction with Tlp3 (in words)” value is given as “No interaction observed”.
Still for that read-out and setting: for `NC(=O)C[C@H](N)C(=O)O` [asparagine] the value was “No interaction observed”.
Regarding `O=C(O)CCC(=O)C(=O)O` [α-ketoglutarate], the “Chemotaxis assay outcome (in words)” value with C. jejuni 11168-O (data not shown) is “not definitive”. Moreover, the Plate assay entry in assay [1] is on record as “Y”. Moreover, the Kd on His-Tlp3 (SPR, 25°C, 1× PBS pH 7.2, read-out: Binding Affinity (KD)) is 296 µM. For the same compound, the Array binding result in assay [3] is reported as “Y”.
